What was measured:
[1] = Example 7 Part I: single rising oral dose pharmacokinetics of NC-758 (Table 3 tablet), plasma 3-APS by LC-MS/MS; assay type: in vivo, human; details: for AUC(0-inf) / Tmax / Cmax / AUC(0-t): human, plasma, fasted; for AUC(0-inf) / Cmax / AUC(0-t): mean; for Tmax: median; for Cmax / AUC(0-t): male, po; for AUC(0-t): read-out: AUC0-Tlast
Source text: (§1) In the following examples and elsewhere herein, terms are as defined below. The pharmacokinetic parameters were derived by non-compartmental analysis using WinNonlin° (Pharsight Corporation, Mountain View, Calif.) or SAS® for Windows® (SAS Institute Inc., Cary, N.C.).
Part I—The pharmacokinetic profile and the effect of food on single rising oral doses of 3-APS free acid (modified-release enteric-coated tablet, as described in Table 3 above, hereinafter “NC-758”) in healthy male young (18-45 years) volunteers is determined. For doses at multiples of 100 mg, multiple 100 mg tables are administered. The pharmacokinetics of a single oral dose of NC-758 is also determined in a group of healthy male elderly (≧55 years old) volunteers. The test is a randomized, double-blind, placebo-controlled study to assess the pharmacokinetic profile of 4 single rising oral doses of NC-758 in healthy young (18-45 years) male subjects. Blood samples are collected during 24 h following dosing. Plasma concentrations of 3-APS are determined using a validated LC-MS/MS method.

[2] = Example 7 Part II: food effect on single 200 mg oral dose pharmacokinetics (Table 3 formulation); assay type: in vivo, human; details: 200 mg single oral, young male
Protocol: as §1
Following single oral dosing of 200 mg 3-APS (modified-release coated formulation as described in Table 3 above) to young male subjects (aged between 18 and 45 years) under fasted and fed (high fat) conditions, maximum plasma concentrations of 3-APS are attained at 5 and 13.5 h post-dose under fasted and fed conditions, respectively (Table 9A).

[3] = Example 8 Part I: multiple rising oral dose pharmacokinetics of NC-758; assay type: in vivo; details: human, plasma, fasted; for AUC(0-inf) / AUC(0-t) / Cmax: mean; for AUC(0-t): read-out: AUC0-12h; for Tmax: median
Protocol: as §1
For doses at multiples of 100 mg, multiple 100 mg tables are administered. […] In Part I, 3-APS is administered as a single dose on Days 1 and 12 and on Days 2-11, twice daily at 12 hour intervals.

[4] = Example 9 Part I: single oral dose pharmacokinetics of NC-758-1 (Table 5 tablet) in healthy elderly; assay type: in vivo; details: both sexes, human, plasma, elderly male and female, fasted; for AUC(0-inf) / AUC(0-t) / Cmax: mean; for Tmax: median
Source text: as §1
Part I—The pharmacokinetic profile and the effect of food on single oral doses of 3-APS free acid (modified-release enteric-coated tablet as described in Table 5 above, hereinafter “NC-758-1“) in healthy male and female elderly (≧55 years) volunteers. For doses at multiples of 50 mg, multiple 50 mg tables are administered. The test is an open label, three-period crossover study to assess the pharmacokinetic profile of 3 single oral doses of NC-758-1 in healthy elderly (≧55 years) male and female subjects. The blood samples are collected during 24 h following dosing. Plasma concentrations of 3-APS are determined using a validated LC-MS/MS method.

[5] = Example 9 Part II: food effect on single 100 mg oral dose pharmacokinetics in elderly (Table 5 formulation); assay type: in vivo; details: both sexes, human, plasma; 100 mg single oral, elderly male and female, Fasting Arm; median
Protocol: as §1
Following single oral dosing of 100 mg 3-APS (modified-release coated formulation modified-release enteric-coated tablet as described in Table 5 above) to elderly (55 years or older) male and female subjects under fasted and fed (high fat) conditions, maximum plasma concentrations of 3-APS are attained at 5 and 10.5 h post-dose under fasted and fed conditions, respectively (Table 12A below and FIG. 5 showing the Mean Plasma Concentration-Time Profiles of 3-APS under Fasted and Fed Conditions following Single Oral Administration of 100 mg to Elderly Male and Female Subjects).

[6] = Example 10: 3-APS concentration in cerebrospinal fluid (CSF) of AD patients; assay type: in vivo, human; details: additional tests, treated patients
Source text: (Patients having a CSF level below the lower limit of quantitation of the assay are considered as zero.) CSF concentrations of 3-APS on Day 2 of Week 12 after twice daily oral administration for 12 weeks are as follows: […]

Aβ42 = biological target: T1, Aβ42 (Homo sapiens, UniProt P05067); assay: Example 11 additional tests: CSF Aβ42 levels and Aβ42/Aβ40 ratio in treated patients; assay type: in vivo
T1 construct: from tissue; host or cells: cerebrospinal fluid of AD patients treated with 3-APS

[7] = Example 13: single 150 mg (3 × 50 mg) oral dose pharmacokinetics in healthy elderly male volunteers, fasting and fed; assay type: in vivo, human; details: 150 mg (3 × 50 mg) single oral, Fasting Conditions, mean
Protocol: as §1
A single dose study of 3-APS Modified-Release Coated Tablets (of Table 5 above) in healthy elderly male volunteers following a 150 mg oral dose administration under fed conditions is conducted. For the 150 mg dose, three 50 mg tables are administered.

[8] = dog, in vivo
Protocol: (§2) Furthermore, the non-hygroscopic nature of the acid form makes it desirable as active pharmaceutical ingredient. To further protect against any possible gastrointestinal intolerance that could result from the acid form, the tablets are enteric-coated and a modified-release agent is added to control any rapid release of the drug in the stomach and the intestine, respectively.

[9] = Gastrointestinal tolerability of sodium salt capsules (certain studies); assay type: in vivo; details: solid dosage form (capsules)
Protocol: as §2

[10] = 100 mg single oral, young (18-45 years) male
[11] = 200 mg single oral, young (18-45 years) male
[12] = 300 mg single oral, young (18-45 years) male
[13] = 100 mg, 100 mg single oral, young (18-45 years) male
[14] = 200 mg, 200 mg single oral, elderly (>55 years) male
[15] = 200 mg, 200 mg single oral, young (18-45 years) male
[16] = 300 mg, 300 mg single oral, young (18-45 years) male
[17] = 400 mg, 400 mg single oral, young (18-45 years) male
[18] = both sexes, 200 mg, 200 mg BID, Day 1, elderly (≧55 years) male and female
[19] = both sexes, 200 mg, 200 mg BID, Day 12, elderly (≧55 years) male and female
[20] = male, 100 mg, 100 mg BID, Day 1, young (18-45 years) male
[21] = male, 100 mg, 100 mg BID, Day 12, young (18-45 years) male
[22] = male, 200 mg, 200 mg BID, Day 1, young (18-45 years) male
[23] = male, 200 mg, 200 mg BID, Day 12, young (18-45 years) male

T1 sequence (P05067 672-713 limits assumed): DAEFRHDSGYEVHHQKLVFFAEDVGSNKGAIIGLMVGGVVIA

## NCCCS(=O)(=O)O [3-APS, 3-amino-1-propanesulfonic acid]
[1]; 200 mg dose, Tables 9 and 10
  AUC0-t greater in elderly subjects compared to young subjects: approximately 70%
  Cmax greater in elderly subjects compared to young subjects: approximately 70%
[1]; [10]
  AUC(0-inf): 1420 ng·h/mL
  Tmax: 5 h
[1]; [11]
  AUC(0-inf): 2490 ng·h/mL
  Tmax: 5 h
[1]; [12]
  AUC(0-inf): 4460 ng·h/mL
  Tmax: 5 h
[1]; 400 mg single oral, young (18-45 years) male
  Tmax: 2 h
[1]; [13]
  Cmax: 410 ng/mL
  AUC(0-t): 1390 ng·h/mL
[1]; [14]
  Cmax: 1090 ng/mL
  AUC(0-t): 4880 ng·h/mL
[1]; [15]
  Cmax: 661 ng/mL
  AUC(0-t): 2900 ng·h/mL
[1]; [16]
  Cmax: 904 ng/mL
  AUC(0-t): 4000 ng·h/mL
[1]; [17]
  Cmax: 5370 ng/mL
  AUC(0-t): 16000 ng·h/mL
[2]; Fed Arm (high fat), mean
  Cmax: 631 ng/mL
[2]; human, plasma, Fasting Arm, mean, read-out: AUC0-Tlast
  AUC(0-t): 2200 ng·h/mL
[2]; human, plasma, Fasting Arm, median
  Tmax: 5 h
[2]; human, plasma, Fed Arm (high fat), mean
  AUC(0-inf): 4500 ng·h/mL
[3]; both sexes, 200 mg BID, Day 1, elderly (≧55 years) male and female
  AUC(0-inf): 5500 ng·h/mL
[3]; both sexes, 200 mg BID, Day 12, elderly (≧55 years) male and female
  AUC(0-t): 6290 ng·h/mL
[3]; [18]
  Cmax: 897 ng/mL
  AUC(0-t): 5020 ng·h/mL
  Tmax: 6 h
[3]; [19]
  Cmax: 880 ng/mL
  Tmax: 5 h
[3]; 100 mg BID, Day 1, young (18-45 years) male
  AUC(0-inf): 1020 ng·h/mL
[3]; 200 mg BID, Day 1, young (18-45 years) male
  AUC(0-inf): 3210 ng·h/mL
[3]; [20]
  Cmax: 282 ng/mL
  AUC(0-t): 1330 ng·h/mL
  Tmax: 6 h
[3]; [21]
  Cmax: 256 ng/mL
  AUC(0-t): 1430 ng·h/mL
  Tmax: 2.5 h
[3]; [22]
  Cmax: 517 ng/mL
  AUC(0-t): 2860 ng·h/mL
  Tmax: 4 h
[3]; [23]
  Cmax: 581 ng/mL
  AUC(0-t): 4150 ng·h/mL
  Tmax: 4 h
[4]; 50 mg single oral
  AUC(0-inf): 1570 ng·h/mL
  AUC(0-t): 1540 ng·h/mL
  Cmax: 469 ng/mL
  Tmax: 5 h
[4]; 100 mg single oral
  AUC(0-inf): 2870 ng·h/mL
  AUC(0-t): 3130 ng·h/mL
  Cmax: 745 ng/mL
  Tmax: 5 h
[4]; 150 mg single oral
  AUC(0-inf): 4500 ng·h/mL
  AUC(0-t): 5300 ng·h/mL
  Tmax: 5 h
[5]
  Tmax: 5 h
[6]
  crossing of the blood/brain barrier: crossed the blood/brain barrier
Aβ42; CSF, treated patients (FIGS. 2, 3 and 4)
  ratio of Aβ42/Aβ40: reduced
Aβ42; treated patients (FIG. 1)
  CSF Aβ42 levels: reduced
[7]
  AUC0-Tlast: 3211 ng·h/mL
  AUC∞: 3284 ng·h/mL
[8]
  tolerability: better tolerated than the sodium salt form

## NCCCS(=O)(=O)[O-].[Na+] [3-amino-1-propanesulfonic acid, sodium salt]
[9]
  gastrointestinal symptoms (i.e. nausea and vomiting): associated with gastrointestinal symptoms

From patent US20060257480A1, “Pharmaceutical formulations of amyloid inhibiting compounds” (priority 2005, published 2006)
